Measurements taken from US12691107B2, “Methods for the treatment and prevention of lung infections caused by gram-positive bacteria, fungus, or virus by administration of tafenoquine” (priority 2020, dated 2026).
Like-named read-outs stand apart in the source and are kept apart here.

Columns and labels:
[1] = test system: Apophysomyces sp.; assay: Antifungal MIC (RPMI-1640 microdilution); format: cell-based
[2] = test system: Scedosporium sp.; assay: Antifungal MIC (RPMI-1640 microdilution); format: cell-based
[3] = test system: C. krusei; assay: Antifungal MIC (RPMI-1640 microdilution); format: cell-based; conditions: Pichia kudriavzevii, isolate ATCC 6258
[4] = test system: SARS-CoV-2; assay: Calculation of RLTEC and MPEC50 for tafenoquine against SARS-CoV-2
Procedure: (§1) Pneumocystis was used as a model organism against which to set minimum requirements for the maximum acceptable in vitro EC50 of tafenoquine against SARS-CoV-2 in vitro. Pneumocystis was selected because it is the only lung pathogen for which both in vitro and in vivo data are available for tafenoquine. The maximum lung tissue concentration [LTsscmaxrats] at the minimum dose of tafenoquine necessary to inhibit the growth of Pneumocystis in vivo in a treatment modality was calculated using relevant data derived from the scientific literature [see Table 7]. The ratio of that concentration to the EC50 against Pneumocystis in vitro RLTEC was determined [see Table 7]. The plasma steady state Cmax [Psscmaxhumans] at the approved prophylactic dose is known from the ARAKODA product insert [60 Degrees Pharmaceuticals. 2018. Product Insert for ARAKODA.]. The maximum steady state lung tissue concentration [LTsscmaxhumans] of that dose was determined using relevant metrics from the literature. The maximum permissible EC50 (“MPEC50”) was then defined by dividing the LTsscmaxhumans by the RLTEC [Table 7].
(§2) The steady state Cmax at the approved prophylactic dose is known based on prior modeling. The maximum steady state lung tissue concentration of that dose was estimated to be 389 microM [Table 7].
(§3) [Note: These calculated values provided in this example were recalculated and updated in the present application and therefore may differ from what is presented in some cross-referenced U.S. Provisional Applications.]

[5] = as above; conditions: human, lung/whole blood; assumed to be the same as rats; read-out: Ratio of lung to whole blood concentration for humans
Procedure: as §1, §2, §3

[6] = test system: HFF, mouse embryo fibroblast and Guinea Pig Lung cells; conditions: range over all three cytomegalovirus assays
[7] = Blood cell:plasma partitioning experiments; format: in vitro ADME, human; conditions: humans
[8] = test system: SARS-CoV-2; assay: microbe, parasite or virus in culture; format: cell-based; conditions: Severe acute respiratory syndrome coronavirus 2, Vero C1008; Vero E6, moi 0.05, 48 hours, TCID50
[9] = test system: GPCMV strain 22122; assay: GPCMV qPCR assay in Guinea Pig Lung cells; format: cell-based; conditions: Cavia porcellus, 168 h, 7 d

COc1cc(C)c2c(Oc3cccc(C(F)(F)F)c3)c(OC)cc(NC(C)CCCN)c2n1.O=C(O)CCC(=O)O (stereo not drawn) [Tafenoquine Succinate]
MIC50 ([1]; read-out: MIC 50% inhibition, isolate Apo1): 8 mg/L | MIC50 ([1]; read-out: MIC 50% inhibition, isolate Apo2): 2 mg/L | MIC50 ([1]; read-out: MIC 50% inhibition, isolate Apo3): 16 mg/L | MIC ([1]; read-out: MIC 100% inhibition, isolate Apo1): 8 mg/L | MIC ([1]; read-out: MIC 100% inhibition, isolate Apo2): 4 mg/L | MIC ([1]; read-out: MIC 100% inhibition, isolate Apo3): 32 mg/L | MIC50 ([2]; Scedosporium, read-out: MIC 50% inhibition, isolate 00-180): 4 mg/L | MIC ([2]; Scedosporium, read-out: MIC 100% inhibition, isolate 00-180): 8 mg/L | MIC ([2]; Scedosporium, read-out: MIC 100% inhibition, isolate LPI): 8 mg/L | MIC ([2]; Scedosporium, read-out: MIC 100% inhibition, isolate Scedo1): 4 mg/L | MIC 50% inhibition ([2]; isolate LPI): 4 mg/L | MIC 50% inhibition ([2]; isolate Scedo1): 4 mg/L | MIC50 ([3]; ATCC6258, read-out: MIC 50% inhibition): 4 mg/L | MIC ([3]; ATCC6258, read-out: MIC 100% inhibition): 4 mg/L

COc1cc(C)c2c(Oc3cccc(C(F)(F)F)c3)c(OC)cc(NC(C)CCCN)c2n1 (stereo not drawn) [Tafenoquine, N(4)-[2,6-Dimethoxy-4-methyl-5-[3-(trifluoromethyl)phenoxy]quinolin-8-yl]pentane-1,4-diamine]
LTsscmaxhumans (maximum steady state lung tissue concentration) ([4]; approved prophylactic dose): 389 µM | LTcmaxrats (maximum lung tissue concentration) ([4]; plasma Cmax multiplied by 2.6 and 250): 23,296 ng/ml | Kp [5]: 250 | CC50s [6]: 13 to 17 µM | ratio of the blood cell:plasma concentration [7]: 1.4 | EC50 [8]: 2.6 µM | EC50 [9]: > 6 µM
